This note sets out measurements from ChEMBL document CHEMBL5352506, “The Zinc-Binding Group Effect: Lessons from Non-Hydroxamic Acid Vorinostat Analogs” (J Med Chem, 2023).

Structures are written as SMILES. A value given as a limit tells only on which side of the number the result lay.

The target in one assay is T1, Histone deacetylase 7 (Homo sapiens, UniProt Q8WUI4).
T1 sequence (Q8WUI4 whole entry): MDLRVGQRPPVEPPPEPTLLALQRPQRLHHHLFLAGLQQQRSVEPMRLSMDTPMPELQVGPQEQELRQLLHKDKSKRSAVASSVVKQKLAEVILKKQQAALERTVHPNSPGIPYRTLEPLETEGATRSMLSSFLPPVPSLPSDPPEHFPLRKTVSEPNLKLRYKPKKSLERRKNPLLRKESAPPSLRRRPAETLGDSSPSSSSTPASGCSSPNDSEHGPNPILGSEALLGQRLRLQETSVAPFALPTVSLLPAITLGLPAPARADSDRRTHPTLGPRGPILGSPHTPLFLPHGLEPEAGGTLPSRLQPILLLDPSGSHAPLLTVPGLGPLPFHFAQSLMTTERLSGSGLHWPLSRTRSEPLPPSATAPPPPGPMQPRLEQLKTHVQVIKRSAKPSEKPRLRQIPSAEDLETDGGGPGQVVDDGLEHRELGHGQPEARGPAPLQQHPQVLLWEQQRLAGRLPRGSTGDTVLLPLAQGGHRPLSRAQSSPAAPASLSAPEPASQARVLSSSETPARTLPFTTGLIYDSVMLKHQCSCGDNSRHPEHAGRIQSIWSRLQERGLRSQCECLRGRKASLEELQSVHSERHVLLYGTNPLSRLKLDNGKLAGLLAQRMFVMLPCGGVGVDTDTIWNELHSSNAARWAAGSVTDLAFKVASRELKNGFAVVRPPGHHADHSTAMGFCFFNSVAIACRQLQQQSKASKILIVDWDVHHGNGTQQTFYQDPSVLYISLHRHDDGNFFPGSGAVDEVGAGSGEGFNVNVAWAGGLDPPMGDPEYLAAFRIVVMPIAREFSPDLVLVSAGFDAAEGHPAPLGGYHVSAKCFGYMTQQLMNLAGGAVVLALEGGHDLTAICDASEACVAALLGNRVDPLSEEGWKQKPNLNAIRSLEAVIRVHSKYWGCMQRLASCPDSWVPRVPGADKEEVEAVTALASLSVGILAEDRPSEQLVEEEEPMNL
Nature of the assay: Inhibition of human recombinant HDAC7 using ArgHisLysLys(Ac) as substrate by fluorescence based analysis.

Another assay addresses T2, Histone deacetylase 8 (Homo sapiens, UniProt Q9BY41).
T2 sequence (Q9BY41 whole entry): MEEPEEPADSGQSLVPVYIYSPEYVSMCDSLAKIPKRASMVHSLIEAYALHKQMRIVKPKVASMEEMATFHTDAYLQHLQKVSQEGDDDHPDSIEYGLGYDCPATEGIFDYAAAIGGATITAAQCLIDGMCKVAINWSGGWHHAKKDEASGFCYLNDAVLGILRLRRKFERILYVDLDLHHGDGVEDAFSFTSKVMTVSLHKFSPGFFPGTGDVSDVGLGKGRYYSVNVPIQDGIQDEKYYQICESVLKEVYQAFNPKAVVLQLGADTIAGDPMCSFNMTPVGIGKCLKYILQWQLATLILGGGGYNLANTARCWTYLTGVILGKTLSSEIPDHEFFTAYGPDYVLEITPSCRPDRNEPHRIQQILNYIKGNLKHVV
Nature of the assay: Inhibition of human recombinant HDAC8 using ArgHisLysLys(Ac) as substrate by fluorescence based analysis.

As a reminder, the IC50 is the concentration that inhibits the measured activity by half. For `O=C(CCCCCC1CNC1=O)Nc1ccccc1` (stereo not drawn), the concentration for half-maximal inhibition (IC50) at Histone deacetylase 7 and at Histone deacetylase 8 was above 1000 µM throughout.
With `O=C(CCCCC[C@@H]1CN(O)C1=O)Nc1ccccc1`, the concentration for half-maximal inhibition (IC50) on Histone deacetylase 7 and on Histone deacetylase 8 was above 1000 µM throughout.
For the compound `Nc1ccccc1N1CC(CCCCCC(=O)Nc2ccccc2)C1=O` (stereo not drawn), the half-inhibitory concentration (IC50) on Histone deacetylase 7 and on Histone deacetylase 8 was above 1000 µM throughout.
As for `O=C(CCCCC[C@H]1CN(O)C1=O)Nc1ccccc1`, the IC50 at Histone deacetylase 7 and on Histone deacetylase 8 was above 1000 µM throughout.
